The results in this text go back to PMC4403042, “Atrial-like cardiomyocytes from human pluripotent stem cells are a robust preclinical model for assessing atrial-selective pharmacology” (EMBO Molecular Medicine, 2015).

The test system of one test is NKX2-5-eGFP/w hESCs. Nature of the test: Cardiac differentiation of hESCs with RA, flow cytometry for GFP at day 15. Format: cell-based, human. The text has this: A cocktail of cytokines (Fig1A) was used to initiate cardiac differentiation in NKX2-5-eGFP/w hESCs as described previously (Ng et al, [2008]; Elliott et al, [2011]). To direct differentiating hESCs toward an atrial phenotype, timing and concentration of treatment with RA were carefully optimized (Supplementary Fig S1A–C). We hypothesized that specification of CM subtypes in vitro occurs post-mesoderm formation and prior to the onset of cardiac progenitor stage. Accordingly, embryoid bodies (EBs) were supplemented with RA from day 4, just after the transient expression of early cardiac mesoderm marker, MESP1, until day 7, a time point at which key transcription factors such as NKX2.5, GATA4 and MEF2C important for commitment and specification of cardiovascular lineages are activated (Supplementary Fig S1A).
Therefore, treatment of differentiating hESCs with 1 μmol/l of RA from day 4 to 7 was considered to be most suitable for driving atrial differentiation. As a control, every experiment included parallel differentiating cultures treated with 0.002% DMSO (the final concentration in RA-treated cultures) from day 4 to 7 (Fig1A).
A transgenic NKX2-5-eGFP/w hESC line that faithfully reports endogenous NKX2.5 expression by GFP was described previously (Elliott et al, [2011]). […]
Gene expression was determined on the HumanHT-12 v4 Expression BeadChip at ServiceXS, Leiden, The Netherlands. […]
(In general: In flow cytometry, cells or beads pass a laser one at a time.)

In another test the test system is differentiating hESCs. Nature of the test: AP characterization of CMs generated from RA-treated differentiations (patch-clamp). Format: cell-based, human. The text has this:
To study the electrical phenotype of CMs treated with RA during differentiation, we measured APs of dissociated single cells using the patch-clamp method (Fig3). Representative APs stimulated at 1 Hz are shown in Fig3B. The AP of a CM treated with RA during differentiation (RA) depicts an AP with a fast phase-1 repolarization and a plateau phase with a more negative potential compared to a control (CT) CM (Fig3B).
Spin EBs resulting from control and RA-treated differentiations were dissociated at day 17 to single cells using TrypLE™ Select (Life Technologies) and plated on gelatin-coated coverslips. Electrophysiological measurements were performed 10–14 days after dissociation from intrinsically quiescent single GFP^+ CMs that were able to contract upon field stimulation.
APs and membrane currents from hESC-CMs were recorded with the amphotericin-B-perforated patch-clamp technique at 36 ± 0.2°C using an Axopatch 200B amplifier (Molecular Devices, Sunnyvale, CA, USA). […] AP measurements were low-pass-filtered (cutoff frequency 10 kHz) and digitized at 40 kHz; membrane currents were measured at 1 and 4 kHz, respectively. Capacitance and series resistance were compensated by ≥ 80%, and APs were corrected for the calculated liquid junction potential (Barry & Lynch, [1991]). […]
In general terms: Patch clamp records ionic current or voltage across a cell membrane.

A value given as a limit tells only on which side of the number the result lay.

As to `CC1=C(/C=C/C(C)=C/C=C/C(C)=C/C(=O)O)C(C)(C)CCC1` [RA, all-trans retinoic acid], the “percentage of GFP+ cells at day 15” value in the test with NKX2-5-eGFP/w hESCs (RA 1 μmol/l day 4 to 7, flow cytometry, control 65%) stood at 50%. In addition, the “effect on cardiac differentiation (percentage of GFP+ cells at day 15)” value in the test with NKX2-5-eGFP/w hESCs (RA 1–10 nmol/l day 4 to 7) is on record as “enhanced cardiac differentiation”. In addition, the “APAplat of individual cells” value in the test on differentiating hESCs (RA group, 1 Hz, CT group > 80 mV) was under 80 mV. In addition, the “cells with atrial-like action potential properties” value in the test on differentiating hESCs (RA treatment group, of 26 cells) is recorded as “about 85%”.
